Source: patent US20210040062A1, “AZOLE-SUBSTITUTED PYRIDINE COMPOUND” (TAISHO PHARMACEUTICAL CO., LTD., priority 2016, published 2021)

Assays:
human CYP4A11 = target: T1, human CYP4A11 (Homo sapiens, UniProt Q02928); experiment: CYP4A11 inhibition test (Test Example 1); format: biochemical; settings: Escherichia coli membrane fraction expressing human CYP4A11, 60 μM luciferine derivative, room temperature 60 minutes, luminescence
T1 construct: host or cells: Escherichia coli (membrane fraction)
T1 sequence (Q02928 5-519): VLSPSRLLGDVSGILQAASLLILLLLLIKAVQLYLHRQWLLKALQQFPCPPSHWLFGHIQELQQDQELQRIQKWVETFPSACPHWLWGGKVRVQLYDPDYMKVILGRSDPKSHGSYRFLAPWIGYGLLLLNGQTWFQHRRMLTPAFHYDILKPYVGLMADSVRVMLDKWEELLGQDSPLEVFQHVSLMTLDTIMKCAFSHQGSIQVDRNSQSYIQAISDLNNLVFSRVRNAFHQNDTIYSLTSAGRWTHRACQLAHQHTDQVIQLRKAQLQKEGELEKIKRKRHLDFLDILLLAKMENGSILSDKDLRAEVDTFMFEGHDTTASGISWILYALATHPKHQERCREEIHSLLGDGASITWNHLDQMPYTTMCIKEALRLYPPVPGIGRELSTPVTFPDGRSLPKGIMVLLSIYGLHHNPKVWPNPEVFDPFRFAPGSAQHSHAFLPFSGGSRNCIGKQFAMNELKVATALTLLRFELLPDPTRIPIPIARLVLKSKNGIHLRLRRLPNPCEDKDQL
In short: (§1)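 E. coli membranes expressing human enzyme (100 μg/mL protein) with luciferin-derivative substrate, 60 min at room temperature, then luminescence read. CYP4F2: 50 mM KPO4 pH 7.4, 2.5 μM substrate, 1 mM NADPH. CYP4A11: 100 mM Tris-HCl pH 7.5, 60 μM substrate, NADP+/glucose 6-phosphate regenerating system.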

human CYP4F2 = target: T2, human CYP4F2 (Homo sapiens, UniProt P78329); experiment: CYP4F2 inhibition test (Test Example 1); format: biochemical; settings: Escherichia coli membrane fraction expressing human CYP4F2, 2.5 μM luciferine derivative, room temperature 60 minutes, luminescence
T2 construct: host or cells: Escherichia coli (membrane fraction)
T2 sequence (P78329 5-520): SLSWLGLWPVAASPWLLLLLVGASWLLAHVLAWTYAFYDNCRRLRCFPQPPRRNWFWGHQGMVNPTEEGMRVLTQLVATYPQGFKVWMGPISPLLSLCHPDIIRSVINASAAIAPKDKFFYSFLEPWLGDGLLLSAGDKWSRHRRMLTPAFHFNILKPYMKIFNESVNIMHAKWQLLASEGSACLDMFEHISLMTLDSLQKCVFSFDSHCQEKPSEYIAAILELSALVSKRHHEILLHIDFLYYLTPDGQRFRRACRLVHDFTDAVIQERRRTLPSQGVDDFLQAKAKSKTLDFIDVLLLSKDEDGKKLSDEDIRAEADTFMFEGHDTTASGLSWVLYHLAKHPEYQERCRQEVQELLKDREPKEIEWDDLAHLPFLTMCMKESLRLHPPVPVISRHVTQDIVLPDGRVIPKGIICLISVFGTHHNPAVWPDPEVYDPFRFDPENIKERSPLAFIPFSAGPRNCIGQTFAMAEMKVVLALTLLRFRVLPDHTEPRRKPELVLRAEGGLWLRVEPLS
In short: as §1

SMILES	IC50 (human CYP4A11)	IC50 (human CYP4F2)
CC(=O)N[C@H]1CC[C@H](COc2ccc(-c3ccn[nH]3)nc2)CC1 [Example 14-5]	610 nM	220 nM
CC(=O)Nc1cc(COc2ccc(-c3ccn[nH]3)nc2)ccn1 [Example 14-6]	6100 nM	210 nM
CCS(=O)(=O)c1cc(COc2ccc(-c3ccn[nH]3)nc2)ccn1 [Example 14-8]	53 nM	60 nM
O=S(=O)(CCCN1CCCC1)c1cccc(COc2ccc(-c3ccn[nH]3)nc2)c1 [Example 14-9]	2900 nM	99 nM
O=S(=O)(CCCN1CCOCC1)c1cccc(COc2ccc(-c3ccn[nH]3)nc2)c1 [Example 14-10]	260 nM	11 nM
O=S(=O)(CC1CC1)c1cc(COc2ccc(-c3ccn[nH]3)nc2)ccn1 [Example 14-11]	30 nM	17 nM
Cc1ccc(COc2ccc(-c3ccn[nH]3)nc2)cc1S(C)(=O)=O [Example 14-12]	270 nM	31 nM
CS(=O)(=O)c1cccc(CCOc2ccc(-c3ccn[nH]3)nc2)c1 [Example 14-13]	2500 nM	98 nM
CS(=O)(=O)c1ccccc1OCCOc1ccc(-c2ccn[nH]2)nc1 [Example 14-14]	6100 nM	1400 nM
CS(=O)(=O)c1ccccc1CCOc1ccc(-c2ccn[nH]2)nc1 [Example 14-15]	78 nM	1500 nM
CC(=O)N(C)[C@H]1CC[C@@H](COc2ccc(-c3ccn[nH]3)nc2)CC1 [Example 15-1, N-Methyl-N-[cis-4-({[6-(1H-pyrazol-5-yl)pyridin-3-yl]oxy}methyl)cyclohexyl]acetamide]	690 nM	260 nM
CC(=O)N[C@H]1C[C@@H](COc2ccc(-c3ccn[nH]3)nc2)C1 [Example 16-1-1, N-[cis-3-({[6-(1H-Pyrazol-5-yl)pyridin-3-yl]oxy}methyl)cyclobutyl]acetamide]	5400 nM	17 nM
CC(=O)N[C@H]1C[C@H](COc2ccc(-c3ccn[nH]3)nc2)C1 [Example 16-1-2, N-[trans-3-({[6-(1H-Pyrazol-5-yl)pyridin-3-yl]oxy}methyl)cyclobutyl]acetamide]	8100 nM	64 nM
CC(=O)N1CC(CCOc2ccc(-c3ccn[nH]3)nc2)C1 [Example 16-2, 1-[3-(2-{[6-(1H-Pyrazol-5-yl)pyridin-3-yl]oxy}ethyl)azetidin-1-yl]ethan-1-one]	10000 nM	790 nM
CC(=O)N1CC(CCCOc2ccc(-c3ccn[nH]3)nc2)C1 [Example 16-3]	4600 nM	15 nM
CS(=O)(=O)c1cc(F)cc(COc2ccc(-c3ccn[nH]3)nc2)c1 [Example 16-5]	79 nM	310 nM
CC(=O)N(C)[C@H]1C[C@@H](COc2ccc(-c3ccn[nH]3)nc2)C1 [Example 17-1-1, N-Methyl-N-[cis-3-({[6-(1H-pyrazol-5-yl)pyridin-3-yl]oxy}methyl)cyclobutyl]acetamide]	2000 nM	20 nM
CC(=O)N(C)[C@H]1C[C@H](COc2ccc(-c3ccn[nH]3)nc2)C1 [Example 17-1-2, N-Methyl-N-[trans-3-({[6-(1H-pyrazol-5-yl)pyridin-3-yl]oxy}methyl)cyclobutyl]acetamide]	2700 nM	19 nM

Second part, the molecule after the results:

IC50 (human CYP4A11)	IC50 (human CYP4F2)	SMILES
18 nM	140 nM	CN(C)S(=O)(=O)c1cc(COc2ccc(-c3ccn[nH]3)nc2)ccc1F [Example 18-1, 2-Fluoro-N,N-dimethyl-5-({[6-(1H-pyrazol-5-yl)pyridin-3-yl]oxy}methyl)benzene-1-sulfonamide]
58 nM	140 nM	CN(C)S(=O)(=O)c1cc(COc2ccc(-c3ccn[nH]3)nc2)ccc1Cl [Example 18-2]
24 nM	27 nM	O=S(=O)(CC1CC1)c1cccc(COc2ccc(-c3ccn[nH]3)nc2)c1 [Example 18-3]
76 nM	85 nM	O=C(CS(=O)(=O)c1cccc(COc2ccc(-c3ccn[nH]3)nc2)c1)N1CCC1 [Example 18-4]
140 nM	47 nM	O=C(CS(=O)(=O)c1cccc(COc2ccc(-c3ccn[nH]3)nc2)c1)N1CCCC1 [Example 18-5]
27 nM	93 nM	CCS(=O)(=O)c1cccc(COc2ccc(-c3ccn[nH]3)nc2)c1 [Example 18-6]
230 nM	95 nM	CC(C)(C)OC(=O)Nc1cccc(COc2ccc(-c3ccn[nH]3)nc2)c1 [Example 18-7]
63 nM	260 nM	CS(=O)(=O)c1cccc(COc2ccc(-c3ccn[nH]3)nc2)c1 [Example 18-8, 5-[(3-Methylsulfonylphenyl)methoxy]-2-(1H-pyrazol-5-yl)pyridine]
620 nM	46 nM	Nc1cccc(COc2ccc(-c3ccn[nH]3)nc2)c1 [Example 19-1, 3-({[6-(1H-Pyrazol-5-yl)pyridin-3-yl]oxy}methyl)aniline]
1600 nM	240 nM	CC(=O)N1CC[C@@H](COc2ccc(-c3ccn[nH]3)nc2)C1 [Example 20-1, 1-[(3R)-3-({[6-(1H-Pyrazol-5-yl)pyridin-3-yl]oxy}methyl)pyrrolidin-1-yl]ethan-1-one]
1600 nM	240 nM	CC(=O)N1CC[C@H](COc2ccc(-c3ccn[nH]3)nc2)C1 [Example 20-2]
1400 nM	2800 nM	CC(=O)N1CCC[C@@H]1CCOc1ccc(-c2ccn[nH]2)nc1 [Example 20-3, 1-[(2R)-2-(2-{[6-(1H-Pyrazol-5-yl)pyridin-3-yl]oxy}ethyl)pyrrolidin-1-yl]ethan-1-one]
2400 nM	180 nM	CC(=O)N(C)[C@H]1CC[C@@H](Oc2ccc(-c3ccn[nH]3)nc2)CC1 [Example 20-4]
6400 nM	150 nM	CC(=O)N(C)[C@H]1CC[C@H](Oc2ccc(-c3ccn[nH]3)nc2)CC1 [Example 20-5]
22000 nM	310 nM	CC(=O)N[C@H]1CC[C@@H](Oc2ccc(-c3ccn[nH]3)nc2)CC1 [Example 20-6]
35000 nM	69 nM	CC(=O)N[C@H]1CC[C@H](Oc2ccc(-c3ccn[nH]3)nc2)CC1 [Example 20-7]
1200 nM	150 nM	CC(=O)NCC12CC(COc3ccc(-c4ccn[nH]4)nc3)(C1)C2 [Example 21-1, N-{[3-({[6-(1H-Pyrazol-5-yl)pyridin-3-yl]oxy}methyl)bicyclo[1.1.1]pentan-1-yl]methyl}acetamide]
390 nM	19 nM	CC(=O)N(C)CC12CC(COc3ccc(-c4ccn[nH]4)nc3)(C1)C2 [Example 22-1, N-Methyl-N-{[3-({[6-(1H-pyrazol-5-yl)pyridin-3-yl]oxy}methyl)bicyclo[1.1.1]pentan-1-yl]methyl}acetamide]
71 nM	13 nM	CC(=O)N1CCC(COc2ccc(-c3[nH]ncc3F)nc2)CC1 [Example 23-1, 1-[4-({[6-(4-Fluoro-1H-pyrazol-5-yl)pyridin-3-yl]oxy}methyl)piperidin-1-yl]ethan-1-one]
52 nM	61 nM	Clc1cn[nH]c1-c1ccc(OCC2CCOCC2)cn1 [Example 23-5]
150 nM	170 nM	Clc1cn[nH]c1-c1ccc(OCCC2CCOCC2)cn1 [Example 23-6]
850 nM	450 nM	CC(=O)N1CCC(COc2cnc(-c3[nH]ncc3C)c(F)c2)CC1 [Example 24-2]
120 nM	35 nM	CC(=O)N1CCC(COc2cnc(-c3ccn[nH]3)cc2C)CC1 [Example 24-3]
8600 nM	590 nM	CC(=O)N1CCC(COc2ccc(-c3ccn[nH]3)nc2C)CC1 [Example 24-4]
64 nM	25 nM	COC(=O)N1CCC(CCOc2cnc(-c3ccn[nH]3)c(F)c2)CC1 [Example 24-6]
440 nM	2600 nM	COc1cn[nH]c1-c1ccc(OCc2cccc(S(C)(=O)=O)c2)cn1 [Example 24-8]
1700 nM	140 nM	CN(C)S(=O)(=O)c1ccc(COc2ccc(-c3ccn[nH]3)nc2)cc1 [Example 25-3, N,N-Dimethyl-4-{[6-(1H-pyrazol-5-yl)pyridin-3-yl]oxymethyl}benzenesulfonamide]
